Columns and labels:
Experiment in all cases: biochemical
Parameters in all cases: species or system HEK293/K-562/placenta mixed human extract; Kinobeads chemoproteomic competition binding, quantified by TMT LC-MS/MS, dose response up to 20 uM
FLT4 = FLT4 (Homo sapiens, UniProt P35916)
CDK5 = CDK5 (Homo sapiens, UniProt Q00535)
MAPK3 = MAPK3 (Homo sapiens, UniProt P27361)
CSNK2A1 = CSNK2A1 (Homo sapiens, UniProt P68400)
TYRO3 = TYRO3 (Homo sapiens, UniProt Q06418)
TAOK2 = TAOK2 (Homo sapiens, UniProt Q9UL54)
KDR = KDR (Homo sapiens, UniProt P35968)
SNRK = SNRK (Homo sapiens, UniProt Q9NRH2)
TNK1 = TNK1 (Homo sapiens, UniProt Q13470)
WNK4 = WNK4 (Homo sapiens, UniProt Q96J92)
PIM3 = PIM3 (Homo sapiens, UniProt Q86V86)
STK35 = STK35 (Homo sapiens, UniProt Q8TDR2)
EPHA2 = EPHA2 (Homo sapiens, UniProt P29317)
MAPK7 = MAPK7 (Homo sapiens, UniProt Q13164)
CLK1 = CLK1 (Homo sapiens, UniProt P49759)
MAP4K3 = MAP4K3 (Homo sapiens, UniProt Q8IVH8)
BRSK2 = BRSK2 (Homo sapiens, UniProt Q8IWQ3)
MAP2K4 = MAP2K4 (Homo sapiens, UniProt P45985)
JAK1 = JAK1 (Homo sapiens, UniProt P23458)
RAF1 = RAF1 (Homo sapiens, UniProt P04049)
GSK3A = GSK3A (Homo sapiens, UniProt P49840)

Measured: IC50

Chain of SNRK (Q9NRH2 whole entry): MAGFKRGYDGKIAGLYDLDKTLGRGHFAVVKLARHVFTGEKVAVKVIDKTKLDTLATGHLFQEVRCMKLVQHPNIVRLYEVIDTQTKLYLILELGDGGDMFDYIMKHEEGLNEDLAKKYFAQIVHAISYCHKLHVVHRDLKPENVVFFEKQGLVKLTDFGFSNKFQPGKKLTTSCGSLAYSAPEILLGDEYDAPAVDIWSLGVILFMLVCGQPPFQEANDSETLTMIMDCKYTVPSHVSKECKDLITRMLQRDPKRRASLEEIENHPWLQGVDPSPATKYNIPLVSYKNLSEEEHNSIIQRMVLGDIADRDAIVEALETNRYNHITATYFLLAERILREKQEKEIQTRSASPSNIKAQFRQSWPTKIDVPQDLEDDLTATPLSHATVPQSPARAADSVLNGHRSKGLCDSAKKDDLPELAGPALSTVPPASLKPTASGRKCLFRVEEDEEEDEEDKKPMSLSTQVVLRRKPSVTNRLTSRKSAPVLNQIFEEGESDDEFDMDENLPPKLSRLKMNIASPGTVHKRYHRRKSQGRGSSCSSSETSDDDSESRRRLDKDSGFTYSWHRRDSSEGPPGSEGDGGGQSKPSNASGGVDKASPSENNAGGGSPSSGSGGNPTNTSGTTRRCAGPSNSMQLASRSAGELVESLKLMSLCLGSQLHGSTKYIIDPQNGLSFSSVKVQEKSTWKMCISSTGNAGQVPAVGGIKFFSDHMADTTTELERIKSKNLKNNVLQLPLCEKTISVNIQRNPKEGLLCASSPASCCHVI
Chain of EPHA2 (P29317 whole entry): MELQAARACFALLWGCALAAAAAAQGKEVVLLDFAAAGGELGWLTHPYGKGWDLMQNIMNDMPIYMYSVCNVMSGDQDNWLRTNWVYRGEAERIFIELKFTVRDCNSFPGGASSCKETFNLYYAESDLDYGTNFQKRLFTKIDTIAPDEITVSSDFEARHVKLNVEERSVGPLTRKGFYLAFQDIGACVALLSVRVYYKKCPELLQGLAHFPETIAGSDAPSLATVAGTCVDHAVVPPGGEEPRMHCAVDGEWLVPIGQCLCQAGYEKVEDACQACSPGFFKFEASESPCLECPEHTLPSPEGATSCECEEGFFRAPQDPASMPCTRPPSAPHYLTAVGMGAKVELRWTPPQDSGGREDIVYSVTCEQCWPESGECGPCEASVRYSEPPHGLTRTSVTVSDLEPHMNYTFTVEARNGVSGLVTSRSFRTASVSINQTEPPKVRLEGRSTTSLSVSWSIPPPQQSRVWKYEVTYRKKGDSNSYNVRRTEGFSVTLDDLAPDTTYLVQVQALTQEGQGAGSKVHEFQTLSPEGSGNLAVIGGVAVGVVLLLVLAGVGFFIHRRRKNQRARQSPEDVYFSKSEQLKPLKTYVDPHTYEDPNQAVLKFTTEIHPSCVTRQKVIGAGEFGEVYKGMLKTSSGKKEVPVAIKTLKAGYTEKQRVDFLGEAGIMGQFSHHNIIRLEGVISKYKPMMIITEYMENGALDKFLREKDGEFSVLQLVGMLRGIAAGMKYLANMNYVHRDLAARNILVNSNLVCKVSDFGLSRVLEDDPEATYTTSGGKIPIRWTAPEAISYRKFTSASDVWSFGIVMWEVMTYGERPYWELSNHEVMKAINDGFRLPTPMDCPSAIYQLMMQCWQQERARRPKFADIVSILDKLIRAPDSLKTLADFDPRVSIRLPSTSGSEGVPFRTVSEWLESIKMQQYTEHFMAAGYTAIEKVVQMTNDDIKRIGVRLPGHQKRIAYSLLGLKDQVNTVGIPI
Chain of TNK1 (Q13470 whole entry): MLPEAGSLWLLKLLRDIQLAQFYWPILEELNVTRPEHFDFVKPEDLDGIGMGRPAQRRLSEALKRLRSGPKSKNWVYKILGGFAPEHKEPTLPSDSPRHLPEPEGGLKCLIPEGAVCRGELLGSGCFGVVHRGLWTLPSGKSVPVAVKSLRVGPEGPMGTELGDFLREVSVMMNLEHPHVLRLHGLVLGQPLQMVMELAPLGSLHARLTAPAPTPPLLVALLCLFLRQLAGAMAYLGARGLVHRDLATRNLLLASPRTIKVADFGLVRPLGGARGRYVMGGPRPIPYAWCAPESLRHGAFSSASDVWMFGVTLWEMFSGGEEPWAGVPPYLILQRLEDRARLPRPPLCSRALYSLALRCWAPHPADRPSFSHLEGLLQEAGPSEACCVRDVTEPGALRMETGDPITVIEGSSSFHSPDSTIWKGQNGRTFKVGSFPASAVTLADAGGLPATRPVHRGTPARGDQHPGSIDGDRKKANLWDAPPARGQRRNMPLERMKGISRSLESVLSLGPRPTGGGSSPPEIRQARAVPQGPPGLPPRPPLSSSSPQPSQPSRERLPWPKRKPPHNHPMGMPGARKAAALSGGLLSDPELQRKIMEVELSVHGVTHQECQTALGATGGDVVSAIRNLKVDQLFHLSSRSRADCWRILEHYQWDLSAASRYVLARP
Chain of CLK1 (P49759 whole entry): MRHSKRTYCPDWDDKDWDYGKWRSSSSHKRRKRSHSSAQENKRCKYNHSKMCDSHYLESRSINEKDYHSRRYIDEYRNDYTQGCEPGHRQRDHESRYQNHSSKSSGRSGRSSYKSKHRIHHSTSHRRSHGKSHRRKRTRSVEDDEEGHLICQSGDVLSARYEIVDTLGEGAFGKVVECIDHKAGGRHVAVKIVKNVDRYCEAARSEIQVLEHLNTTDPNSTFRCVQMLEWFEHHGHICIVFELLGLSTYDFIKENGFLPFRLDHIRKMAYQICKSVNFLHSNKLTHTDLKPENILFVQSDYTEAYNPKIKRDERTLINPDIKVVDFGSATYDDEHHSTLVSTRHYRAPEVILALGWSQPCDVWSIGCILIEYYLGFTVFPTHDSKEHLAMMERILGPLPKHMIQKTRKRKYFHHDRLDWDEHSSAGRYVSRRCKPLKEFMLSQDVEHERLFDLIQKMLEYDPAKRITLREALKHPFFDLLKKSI
Chain of JAK1 (P23458 whole entry): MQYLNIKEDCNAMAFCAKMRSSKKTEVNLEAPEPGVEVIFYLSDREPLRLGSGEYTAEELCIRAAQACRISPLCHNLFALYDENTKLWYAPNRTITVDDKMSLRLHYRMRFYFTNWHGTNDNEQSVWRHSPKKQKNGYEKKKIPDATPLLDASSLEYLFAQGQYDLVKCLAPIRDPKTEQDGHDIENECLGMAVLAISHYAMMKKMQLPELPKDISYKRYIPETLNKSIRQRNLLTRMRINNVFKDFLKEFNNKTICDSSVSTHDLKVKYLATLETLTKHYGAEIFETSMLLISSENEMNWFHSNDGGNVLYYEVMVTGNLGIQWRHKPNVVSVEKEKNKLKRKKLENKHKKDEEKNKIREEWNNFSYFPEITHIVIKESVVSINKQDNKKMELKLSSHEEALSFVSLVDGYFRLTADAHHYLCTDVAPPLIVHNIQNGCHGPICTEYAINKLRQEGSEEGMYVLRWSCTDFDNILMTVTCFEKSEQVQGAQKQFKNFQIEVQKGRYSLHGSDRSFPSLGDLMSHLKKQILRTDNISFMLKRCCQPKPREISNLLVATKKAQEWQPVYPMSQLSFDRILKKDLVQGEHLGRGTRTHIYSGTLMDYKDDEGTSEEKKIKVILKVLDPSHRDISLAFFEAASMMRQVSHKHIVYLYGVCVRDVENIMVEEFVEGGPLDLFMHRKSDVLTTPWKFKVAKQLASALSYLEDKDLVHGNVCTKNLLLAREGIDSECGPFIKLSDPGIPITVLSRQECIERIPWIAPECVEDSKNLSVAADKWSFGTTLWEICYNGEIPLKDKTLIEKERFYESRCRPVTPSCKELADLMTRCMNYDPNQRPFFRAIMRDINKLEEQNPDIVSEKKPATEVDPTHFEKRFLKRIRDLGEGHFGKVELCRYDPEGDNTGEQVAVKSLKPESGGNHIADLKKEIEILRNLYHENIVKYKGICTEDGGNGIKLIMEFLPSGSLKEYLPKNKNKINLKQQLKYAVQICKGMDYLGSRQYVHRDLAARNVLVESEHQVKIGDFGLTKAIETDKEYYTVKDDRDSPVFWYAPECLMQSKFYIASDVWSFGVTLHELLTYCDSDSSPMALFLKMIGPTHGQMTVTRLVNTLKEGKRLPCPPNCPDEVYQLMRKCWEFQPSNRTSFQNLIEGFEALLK
Chain of MAPK7 (Q13164 whole entry): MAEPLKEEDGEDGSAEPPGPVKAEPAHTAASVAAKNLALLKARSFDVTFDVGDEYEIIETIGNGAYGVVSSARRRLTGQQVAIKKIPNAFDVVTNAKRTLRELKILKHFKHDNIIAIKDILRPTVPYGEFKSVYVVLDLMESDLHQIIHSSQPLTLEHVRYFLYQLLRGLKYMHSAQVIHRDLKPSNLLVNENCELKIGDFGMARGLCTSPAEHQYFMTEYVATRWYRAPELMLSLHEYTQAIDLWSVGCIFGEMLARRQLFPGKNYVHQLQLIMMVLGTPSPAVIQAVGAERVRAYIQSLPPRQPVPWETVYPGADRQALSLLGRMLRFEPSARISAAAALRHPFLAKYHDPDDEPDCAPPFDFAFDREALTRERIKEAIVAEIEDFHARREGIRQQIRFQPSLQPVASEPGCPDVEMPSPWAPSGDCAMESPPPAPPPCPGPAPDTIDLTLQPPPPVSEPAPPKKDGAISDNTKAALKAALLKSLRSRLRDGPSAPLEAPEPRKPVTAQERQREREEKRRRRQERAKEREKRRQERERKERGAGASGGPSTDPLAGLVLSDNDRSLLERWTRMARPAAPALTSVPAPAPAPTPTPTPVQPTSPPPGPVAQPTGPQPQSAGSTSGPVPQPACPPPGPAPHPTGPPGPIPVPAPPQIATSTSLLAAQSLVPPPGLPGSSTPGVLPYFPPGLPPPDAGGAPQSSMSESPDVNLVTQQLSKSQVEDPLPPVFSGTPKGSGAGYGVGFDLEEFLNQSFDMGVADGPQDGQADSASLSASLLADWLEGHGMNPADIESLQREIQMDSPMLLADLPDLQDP

COc1nc(N[C@H]2CC[C@H](NS(=O)(=O)CC(C)C)CC2)nc2[nH]nc(N3CCOC[C@H]3C)c12 [compound 39, N-(trans-4-((4-Methoxy-3-((R)-3-methylmorpholino)-1H-pyrazolo[3,4-d]pyrimidin-6-yl)amino)cyclohexyl)-2-methylpropane-1-sulfonamide]
12 µM: CDK5
≥ 20 µM: all other assays above

Reference: paper PMC6407917, “Identification of GSK3186899/DDD853651 as a Preclinical Development Candidate for the Treatment of Visceral Leishmaniasis” (Journal of Medicinal Chemistry, 2018)
